Reference: patent US20250002471A1 (Gilead Sciences, Inc., priority 2020, published 2025)

Legend:
TLR7 = target: T1, TLR7 (Homo sapiens, UniProt Q9NYK1); assay: Human PBMC cell-based assay, TLR7 agonist GS-986 stimulation, cytokine (IL-6 and IFNα) readout; details: human PBMCs, GS-986 400 nM, 6 hours; Table 26; read-out: TLR-7 EC50
T1 construct: lymphocytes, monocytes and dendritic cells that express TLR7, TLR8 and TLR9; endogenous in cells; host or cells: human PBMCs from healthy donors
T1 sequence (Q9NYK1 27-1049): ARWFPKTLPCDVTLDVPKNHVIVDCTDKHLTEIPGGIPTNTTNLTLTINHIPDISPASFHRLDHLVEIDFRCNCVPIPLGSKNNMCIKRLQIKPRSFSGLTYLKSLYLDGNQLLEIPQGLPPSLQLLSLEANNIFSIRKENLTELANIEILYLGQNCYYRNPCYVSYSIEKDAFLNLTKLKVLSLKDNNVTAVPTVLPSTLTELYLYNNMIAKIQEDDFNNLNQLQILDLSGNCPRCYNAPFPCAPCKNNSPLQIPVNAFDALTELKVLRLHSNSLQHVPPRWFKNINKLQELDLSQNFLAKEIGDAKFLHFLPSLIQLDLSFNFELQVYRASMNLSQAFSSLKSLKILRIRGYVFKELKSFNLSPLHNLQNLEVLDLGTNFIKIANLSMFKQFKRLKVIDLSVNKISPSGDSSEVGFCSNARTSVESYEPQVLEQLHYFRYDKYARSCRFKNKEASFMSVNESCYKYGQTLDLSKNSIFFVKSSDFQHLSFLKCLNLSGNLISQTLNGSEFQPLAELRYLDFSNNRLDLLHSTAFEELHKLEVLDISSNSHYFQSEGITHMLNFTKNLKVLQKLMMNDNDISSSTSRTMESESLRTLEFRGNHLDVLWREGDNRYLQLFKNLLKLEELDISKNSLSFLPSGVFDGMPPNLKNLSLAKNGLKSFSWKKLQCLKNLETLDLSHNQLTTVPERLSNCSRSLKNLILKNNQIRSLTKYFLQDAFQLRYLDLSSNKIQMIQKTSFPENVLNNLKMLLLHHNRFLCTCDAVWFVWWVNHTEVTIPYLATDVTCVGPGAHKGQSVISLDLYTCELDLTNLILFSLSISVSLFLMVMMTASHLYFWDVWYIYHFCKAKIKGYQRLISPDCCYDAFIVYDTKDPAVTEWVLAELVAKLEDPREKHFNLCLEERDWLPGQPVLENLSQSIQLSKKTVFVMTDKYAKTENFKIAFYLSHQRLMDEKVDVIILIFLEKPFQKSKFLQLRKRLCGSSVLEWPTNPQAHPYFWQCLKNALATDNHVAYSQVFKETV
Outline: (§1)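 Readout is IL-6 and IFNα in supernatants, quantified by electrochemiluminescence, with EC50 from a sigmoidal fit of cytokine versus concentration. Healthy-donor human PBMCs, 100,000 per well, got antagonist for 1 h at 37 °C, then 6 h agonist exposure: TLR7 via GS-986 at 400 nM final, TLR9 via ODN-2216 at 3 μM final.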

TLR9 = target: T2, TLR9 (Homo sapiens, UniProt Q9NR96); assay: Human PBMC cell-based assay, TLR9 agonist ODN-2216 stimulation, cytokine (IL-6 and IFNα) readout; details: human PBMCs, ODN-2216 3 μM, 6 hours; Table 26; read-out: TLR-9 EC50
T2 construct: lymphocytes, monocytes and dendritic cells that express TLR7, TLR8 and TLR9; endogenous in cells; host or cells: human PBMCs from healthy donors
T2 sequence (Q9NR96 26-1032): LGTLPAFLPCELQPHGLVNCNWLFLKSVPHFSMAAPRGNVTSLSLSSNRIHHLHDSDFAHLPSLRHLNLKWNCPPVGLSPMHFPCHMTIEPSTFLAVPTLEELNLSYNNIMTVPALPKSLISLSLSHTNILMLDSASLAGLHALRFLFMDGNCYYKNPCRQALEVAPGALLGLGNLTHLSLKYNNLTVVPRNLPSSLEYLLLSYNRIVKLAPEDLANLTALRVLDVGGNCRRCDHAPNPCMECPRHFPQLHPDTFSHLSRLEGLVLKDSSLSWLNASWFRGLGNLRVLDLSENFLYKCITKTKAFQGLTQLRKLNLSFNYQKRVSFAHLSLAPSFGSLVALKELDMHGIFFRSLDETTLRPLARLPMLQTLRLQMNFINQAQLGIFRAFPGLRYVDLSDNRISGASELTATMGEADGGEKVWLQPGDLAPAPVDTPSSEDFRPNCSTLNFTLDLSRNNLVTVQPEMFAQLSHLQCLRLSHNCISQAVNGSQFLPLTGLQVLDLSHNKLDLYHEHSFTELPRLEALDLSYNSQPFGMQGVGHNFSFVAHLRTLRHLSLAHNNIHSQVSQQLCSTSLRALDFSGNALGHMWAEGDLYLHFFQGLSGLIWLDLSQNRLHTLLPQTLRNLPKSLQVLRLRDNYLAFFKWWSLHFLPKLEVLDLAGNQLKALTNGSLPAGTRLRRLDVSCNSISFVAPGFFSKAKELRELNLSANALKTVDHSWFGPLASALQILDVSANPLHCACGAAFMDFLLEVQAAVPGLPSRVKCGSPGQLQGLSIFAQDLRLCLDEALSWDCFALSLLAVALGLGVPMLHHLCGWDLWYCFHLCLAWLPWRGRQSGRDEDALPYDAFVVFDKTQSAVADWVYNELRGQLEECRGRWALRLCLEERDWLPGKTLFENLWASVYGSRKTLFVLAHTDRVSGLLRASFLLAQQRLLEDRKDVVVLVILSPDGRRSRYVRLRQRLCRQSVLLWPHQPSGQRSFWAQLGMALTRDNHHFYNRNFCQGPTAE
Outline: as §1

Structure (SMILES) | EC50 (TLR7) [nM] | EC50 (TLR9) [nM]
Cc1c(-c2ccc(=O)n(C)c2)[nH]c2cc(-c3ccc(N4CCNCC4)nc3)ccc12 [Example 95, 1-methyl-5-(3-methyl-6-(6-(piperazin-1-yl)pyridin-3-yl)-1H-indol-2-yl)pyridin-2(1H)-one] | 102 | 288
Cc1cc(-c2[nH]c3cc(-c4ccc(N5CCNCC5)nc4)ccc3c2C)nc(C)n1 [Example 96] | 144 | 609
Cc1cncc(-c2[nH]c3cc(-c4ccc(N5CCNCC5)nc4)ccc3c2C)n1 [Example 98] | 1130 | 1520
Cc1cc(-c2[nH]c3cc(C#CC4CCNCC4)ccc3c2C)cc(C)n1 [Example 100, 2-(2,6-dimethylpyridin-4-yl)-3-methyl-6-(piperidin-4-ylethynyl)-1H-indole] | 437 | 101
Cc1cc(-c2[nH]c3cc(-c4ccc(N5CCNCC5)nc4)ccc3c2C#N)cc(C)n1 [Example 101, 2-(2,6-dimethylpyridin-4-yl)-6-(6-(piperazin-1-yl)pyridin-3-yl)-1H-indole-3-carbonitrile] | 1720 | 316
CC(=O)c1c(-c2cc(C)nc(C)c2)[nH]c2cc(-c3ccc(N4CCNCC4)nc3)ccc12 [Example 102, 1-(2-(2,6-dimethylpyridin-4-yl)-6-(6-(piperazin-1-yl)pyridin-3-yl)-1H-indol-3-yl)ethan-1-one] | 1730 | 217
CC(=O)N1CCN(c2ccc(-c3ccc4c(C)c(-c5cc(C)nc(C)c5)[nH]c4c3)cn2)CC1 [Example 107] | 224 | 717
Cc1cc(-c2[nH]c3cc(-c4ccc(N5CCN(C(=O)[C@H]6COCCN6)CC5)nc4)ccc3c2C)cc(C)n1 [Example 111] | 56.8 | 59.2
Cc1cc(-c2[nH]c3cc(-c4ccc(N5CCN(C(=O)[C@@H]6CNCCO6)CC5)nc4)ccc3c2C)cc(C)n1 [Example 112] | 58.3 | 114
CNC(=O)CN1CCN(c2ccc(-c3ccc4c(C)c(-c5cc(C)nc(C)c5)[nH]c4c3)cn2)CC1 [Example 113, 2-(4-(5-(2-(2,6-dimethylpyridin-4-yl)-3-methyl-1H-indol-6-yl)pyridin-2-yl)piperazin-1-yl)-N-methylacetamide] | 68.8 | 123
Cc1cc(-c2[nH]c3cc(-c4ccc(N5CC[N+](CCN(C)C)(CCN(C)C)CC5)nc4)ccc3c2C)cc(C)n1 [Example 115, 1,1-bis(2-(dimethylamino)ethyl)-4-(5-(2-(2,6-dimethylpyridin-4-yl)-3-methyl-1H-indol-6-yl)pyridin-2-yl)piperazin-1-ium] | 394 | 189
Cc1cc(-c2[nH]c3cc(-c4ccc(N5CCN(CC(=O)N(C)C)CC5)nc4)ccc3c2C)cc(C)n1 [Example 116] | 140 | 67.9
COCCN1CCN(c2ccc(-c3ccc4c(C)c(-c5cc(C)nc(C)c5)[nH]c4c3)cn2)CC1 [Example 117] | 72.3 | 69.4
Cc1cc(-c2[nH]c3cc(-c4cccc(C(=O)N5CC[C@H](N)C5)c4)ccc3c2C)cc(C)n1 [Example 119, (S)-(3-aminopyrrolidin-1-yl)(3-(2-(2,6-dimethylpyridin-4-yl)-3-methyl-1H-indol-6-yl)phenyl)methanone] | 54.1 | 193
Cc1cc(-c2[nH]c3cc(-c4ccc(C(=O)N5CC[C@H](N)C5)cc4)ccc3c2C)cc(C)n1 [Example 120, (S)-(3-aminopyrrolidin-1-yl)(4-(2-(2,6-dimethylpyridin-4-yl)-3-methyl-1H-indol-6-yl)phenyl)methanone] | 152 | 89.5
Cc1cc(-c2[nH]c3cc(-c4cccc(C(=O)N5CC[C@@H](N)C5)c4)ccc3c2C)cc(C)n1 [Example 121] | 134 | 112

Molecules with a lower EC50 (TLR7), results first:

EC50 (TLR7) [nM] | EC50 (TLR9) [nM] | Structure (SMILES)
4.5 | 139 | Cc1cc(-c2[nH]c3cc(-c4ccc(N5CCNCC5)nc4)ccc3c2C)cn(C)c1=O [Example 94, 1,3-dimethyl-5-(3-methyl-6-(6-(piperazin-1-yl)pyridin-3-yl)-1H-indol-2-yl)pyridin-2(1H)-one]
2.6 | 733 | Cc1c(-c2ccc(C#N)c3ncccc23)[nH]c2cc(-c3ccc(N4CCNCC4)nc3)ccc12 [Example 97]
1.8 | 548 | Cc1cc(-c2[nH]c3cc(-c4ccc(N5CCNCC5)nc4)ccc3c2C)c2cccnc2n1 [Example 99]
35.1 | 45.7 | Cc1cc(-c2[nH]c3cc(-c4ccc(N5CCCNCC5)nc4)ccc3c2C)cc(C)n1 [Example 103, 6-(6-(1,4-diazepan-1-yl)pyridin-3-yl)-2-(2,6-dimethylpyridin-4-yl)-3-methyl-1H-indole]
8.3 | 44.1 | Cc1cc(-c2[nH]c3cc(-c4ccc(N5CCC(N)CC5)nc4)ccc3c2C2CC2)cc(C)n1 [Example 104, 1-(5-(3-cyclopropyl-2-(2,6-dimethylpyridin-4-yl)-1H-indol-6-yl)pyridin-2-yl)piperidin-4-amine]
0.9 | 31.2 | Cc1cc(-c2[nH]c3cc(-c4ccc(N5CC[C@@H](N)C5)nc4)ccc3c2C2CC2)cc(C)n1 [Example 105]
39.8 | 18.2 | Cc1cc(-c2[nH]c3cc(-c4ccc(N5CCN(C(=O)CN(C)C)CC5)nc4)ccc3c2C)cc(C)n1 [Example 106, 2-(dimethylamino)-1-(4-(5-(2-(2,6-dimethylpyridin-4-yl)-3-methyl-1H-indol-6-yl)pyridin-2-yl)piperazin-1-yl)ethan-1-one]
44.5 | 32.1 | Cc1cc(-c2[nH]c3cc(-c4ccc(N5CCN(C(=O)[C@@H]6CCCN6C)CC5)nc4)ccc3c2C)cc(C)n1 [Example 108]
15.3 | 35.5 | Cc1cc(-c2[nH]c3cc(-c4ccc(N5CCN(C(=O)[C@H]6CCCN6C)CC5)nc4)ccc3c2C)cc(C)n1 [Example 109]
32.2 | 63.6 | Cc1cc(-c2[nH]c3cc(-c4ccc(N5CCN(C(=O)[C@@H]6COCCN6)CC5)nc4)ccc3c2C)cc(C)n1 [Example 110]
21.6 | 36.1 | Cc1cc(-c2[nH]c3cc(-c4ccc(N5CCN(CCN(C)C)CC5)nc4)ccc3c2C)cc(C)n1 [Example 114, 2-(4-(5-(2-(2,6-dimethylpyridin-4-yl)-3-methyl-1H-indol-6-yl)pyridin-2-yl)piperazin-1-yl)-N,N-dimethylethan-1-amine]
5.8 | 58.7 | Cc1cc(-c2[nH]c3cc(-c4ccc(N5CCN(CC(C)O)CC5)nc4)ccc3c2C)cc(C)n1 (centres unmarked) [Example 118]
